Assay results published in US6719958B1, “Polychelants, their complexes with metal ions, their preparation and their uses” (Dibra S.p.A., priority 1996, dated 2004).

How the values were obtained:
[1] = Relaxivity measurement (Bruker Minispec 120, 0.5 T, 39° C.); format: physicochemical; settings: on a per gadolinium basis
Protocol: For some Gd-containing products the relaxivity r1 was measured using a Bruker Minispec 120, at 0.5 T and 39° C.

[2] = according to the literature (Lauffer R. B. (1990) Magn. Reson. Quart. 2, 65-84); cited from earlier work

Molecule | Relaxivity r1 ([1]; 0.5 T and 39° C.) [s⁻¹ mM⁻¹] | further results
O=C(O)CN1CCN(CC(=O)O)CCN(CC(=O)NCCCN(CCCC[C@H](NC(=O)OCc2ccccc2)C(=O)O)CCCNC(=O)CN2CCN(CC(=O)O)CCN(CC(=O)O)CCN(CC(=O)O)CC2)CCN(CC(=O)O)CC1 [Example 6, N^α-Carbobenzyloxy-N^ε,N^ε-bis-[4-aza-5-oxo-6-(1,4,7,10-tetraazacyclododecyl-4,7,10-triacetate)hexyl]-L-lysine] | – | Relaxivity r1 [1]: 8.35 s⁻¹ mM⁻¹
O=C([O-])CN1CCN(CC(=O)[O-])CCN(CC(=O)O)CCN(CC(=O)[O-])CC1.[Gd+3] [Gd-DOTA] | – | r1 value [2]: 3.4 mM⁻¹ s⁻¹
Gadolinium Complex of N^□,N^ε,N^ε(a)-Tris-[4-aza-5-oxo-6-(1,4,7,10-tetraazacyclododecol-4,7,10-triacetate)hexyl]-L-lysine [Example 4] | 5.25 | –
Gadolinium Complex of N^□,N^□,N^ε,N^ε-Tetrakis-[4-aza-5-oxo-6-(1,4,7,10-tetraazacyclododecyl-4,7,10-triacetate)hexyl]-L-lysine [Example 5] | 8.35 | –
Example 9: Conjugate of gadolinium complex compound (IVa) with horse heart myoglobin; Gd content 27.9 mol/mol protein (conjugate, UniProt P68082 2-154, looked up, gadolinium complex IVa conjugate, Conjugate of gadolinium complex compound (IVa) with horse heart myoglobin; Gd content 27.9 mol/mol protein) Myoglobin: GLSDGEWQQVLNVWGKVEADIAGHGQEVLIRLFTGHPETLEKFDKFKHLKTEAEMKASEDLKKHGTVVLTALGGILKKKGHHEAELKPLAQSHATKHKIPIKYLEFISDAIIHVLHSKHPGDFGADAQGAMTKALELFRNDIAAKYKELGFQG | 19 | –
